The record followed here is PubChem BioAssay AID651592 (Sanford-Burnham Center for Chemical Genomics, 2012).

Assay [1] has as its target Interleukin-8 (Homo sapiens) (UniProt P10145). The assay can be described thus: inhibitors of NFkB activation in CF airway cells, SAR follow-up, KKLEB cells, panel, IL8 HTRF, NFkB-GFP (AID 651592).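 Further: immortalized cystic fibrosis airway epithelial KKLEB cells with an NF-kB GFP reporter.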 Conditions: PAF/TNFa-induced NFkB-GFP / IL8 HTRF. For orientation: TR-FRET usually uses a lanthanide donor and a delayed reading to cut background.
Experiment in assay [2]: as above
Conditions: PAF/TNFa-induced NFkB-GFP / IL8 HTRF, CF-PAF assay.

In assay [3] the test system is IL8. Described as above. Conditions: PAF/TNFa-induced NFkB-GFP / IL8 HTRF, mean of runs, mean IC50 across panel replicates.
Setting [4] is: mean of runs, mean IC50 across panel replicates.

A value given as a limit tells only on which side of the number the result lay.

Sequence of Interleukin-8 (Homo sapiens) (P10145 whole entry, looked up): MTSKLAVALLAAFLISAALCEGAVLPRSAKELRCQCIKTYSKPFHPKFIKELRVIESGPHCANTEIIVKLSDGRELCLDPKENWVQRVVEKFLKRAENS

As for `O=C(Nc1ccc(N2CCN(C(=O)c3ccc(F)cc3)CC2)cc1)c1cncc(Br)c1`, the IC50 in assay [1] (IL8, PAF-induced, run 1) stood at 8.79 µM; in assay [1] (IL8, PAF-induced, run 2) it was 9.88 µM; in assay [1] (IL8, PAF-induced, run 3), 24.9 µM; in assay [1] (IL8, PAF-induced, run 4), 2.03 µM; in assay [1] (IL8, PAF-induced, run 5), 3.53 µM; in assay [1] (IL8, PAF-induced, run 6), 7.95 µM. Moreover, the IC50 is > 66 µM in assay [1] (IL8, TNFa-induced, run 1); > 66 µM in assay [1] (IL8, TNFa-induced, run 2); > 66 µM in assay [1] (IL8, TNFa-induced, run 3); > 66 µM in assay [1] (IL8, TNFa-induced, run 4); 10.3 µM in assay [1] (IL8, TNFa-induced, run 5); 25.4 µM in assay [1] (IL8, TNFa-induced, run 6). Moreover, the IC50 in assay [2] (setting [4]) was 3.01 µM; in assay [2] (run 1) it was 2.5 µM; in assay [2] (run 2), 3.02 µM; in assay [2] (run 3), 3.34 µM; in assay [2] (run 4), 2.31 µM; in assay [2] (run 5), 3.07 µM. Moreover, the IC50 came out at 3.82 µM in assay [2] (run 6), 9.52 µM in assay [3] (PAF-induced) and 50 µM in assay [3] (TNFa-induced).
On to `O=C(Nc1ccc(N2CCN(C(=O)c3ccccc3Cl)CC2)cc1)c1cccnc1`, for which the IC50 was > 66 µM in assay [1] (IL8, PAF-induced, run 1); > 66 µM in assay [1] (IL8, PAF-induced, run 2); > 66 µM in assay [1] (IL8, PAF-induced, run 3); > 66 µM in assay [1] (IL8, PAF-induced, run 4); > 66 µM in assay [1] (IL8, PAF-induced, run 5); > 66 µM in assay [1] (IL8, PAF-induced, run 6). Also, the IC50 is > 66 µM in assay [1] (IL8, TNFa-induced, run 1); > 66 µM in assay [1] (IL8, TNFa-induced, run 2); > 66 µM in assay [1] (IL8, TNFa-induced, run 3); > 66 µM in assay [1] (IL8, TNFa-induced, run 4); > 66 µM in assay [1] (IL8, TNFa-induced, run 5); > 66 µM in assay [1] (IL8, TNFa-induced, run 6). In addition, the IC50 in assay [2] (setting [4]) is 25.3 µM; in assay [2] (run 1) it was 3.68 µM; in assay [2] (run 2), 4.18 µM; in assay [2] (run 3), 4.81 µM; in assay [2] (run 4), > 66 µM; in assay [2] (run 5), > 66 µM. Besides, the IC50 in assay [2] (run 6) is 7.26 µM; in assay [3] (PAF-induced) it was > 66 µM; in assay [3] (TNFa-induced), > 66 µM.
For the compound `O=C(Nc1ccc(N2CCN(C(=O)c3ccccc3)CC2)cc1)c1ccccc1`, the IC50 in assay [1] (IL8, PAF-induced, run 1) is > 66 µM; in assay [1] (IL8, PAF-induced, run 2), > 66 µM; in assay [1] (IL8, PAF-induced, run 3) it was > 66 µM; in assay [1] (IL8, PAF-induced, run 4), > 66 µM; in assay [1] (IL8, PAF-induced, run 5), > 66 µM; in assay [1] (IL8, PAF-induced, run 6), > 66 µM. Also, the IC50 in assay [1] (IL8, TNFa-induced, run 1) is > 66 µM; in assay [1] (IL8, TNFa-induced, run 2) it was > 66 µM; in assay [1] (IL8, TNFa-induced, run 3), > 66 µM; in assay [1] (IL8, TNFa-induced, run 4) it was > 66 µM; in assay [1] (IL8, TNFa-induced, run 5) it was > 66 µM; in assay [1] (IL8, TNFa-induced, run 6) it was > 66 µM. For the same compound, the IC50 in assay [2] (setting [4]) is 50.5 µM; in assay [2] (run 1), 30.5 µM; in assay [2] (run 2), 31.9 µM; in assay [2] (run 3) it was 42.5 µM; in assay [2] (run 4), > 66 µM; in assay [2] (run 5) it was > 66 µM. Further, the IC50 in assay [2] (run 6), in assay [3] (PAF-induced) and in assay [3] (TNFa-induced) was > 66 µM throughout.
On to `CCOc1ccc(NCc2cc3c(C(C)(C)C)nn(-c4ccccc4)c3[nH]c2=O)cc1`, for which the IC50 in assay [1] (IL8, PAF-induced, run 1) turned out to be 2.61 µM; in assay [1] (IL8, PAF-induced, run 2) it was 3.3 µM; in assay [1] (IL8, PAF-induced, run 3), 3.37 µM; in assay [1] (IL8, PAF-induced, run 4), 4.49 µM; in assay [1] (IL8, PAF-induced, run 5), 4.57 µM; in assay [1] (IL8, PAF-induced, run 6), 5.68 µM. The IC50 in assay [1] (IL8, TNFa-induced, run 1) was > 66 µM; in assay [1] (IL8, TNFa-induced, run 2) it was > 66 µM; in assay [1] (IL8, TNFa-induced, run 3), > 66 µM; in assay [1] (IL8, TNFa-induced, run 4), > 66 µM; in assay [1] (IL8, TNFa-induced, run 5), > 66 µM; in assay [1] (IL8, TNFa-induced, run 6) it was > 66 µM. Further, the IC50 in assay [2] (setting [4]) is 25.5 µM; in assay [2] (run 1) it was 12.8 µM; in assay [2] (run 2), 20.1 µM; in assay [2] (run 3) it was 22.3 µM; in assay [2] (run 4) it was > 66 µM; in assay [2] (run 5), 13 µM. For the same compound, the IC50 in assay [2] (run 6) was 19 µM; in assay [3] (PAF-induced), 4 µM; in assay [3] (TNFa-induced), > 66 µM.
For the compound `O=C(Nc1ccc(N2CCN(C(=O)c3ccccc3F)CC2)cc1)c1cccnc1`, the IC50 is > 66 µM in assay [1] (IL8, PAF-induced, run 1); > 66 µM in assay [1] (IL8, PAF-induced, run 2); > 66 µM in assay [1] (IL8, PAF-induced, run 3); > 66 µM in assay [1] (IL8, PAF-induced, run 4); > 66 µM in assay [1] (IL8, PAF-induced, run 5); 37.8 µM in assay [1] (IL8, PAF-induced, run 6). For the same compound, the IC50 is > 66 µM in assay [1] (IL8, TNFa-induced, run 1); > 66 µM in assay [1] (IL8, TNFa-induced, run 2); > 66 µM in assay [1] (IL8, TNFa-induced, run 3); > 66 µM in assay [1] (IL8, TNFa-induced, run 4); > 66 µM in assay [1] (IL8, TNFa-induced, run 5); > 66 µM in assay [1] (IL8, TNFa-induced, run 6). Further, the IC50 in assay [2] (setting [4]) is 29 µM; in assay [2] (run 1) it was 6.4 µM; in assay [2] (run 2), 8.28 µM; in assay [2] (run 3), 8.83 µM; in assay [2] (run 4), > 66 µM; in assay [2] (run 5), > 66 µM. The IC50 was 18.3 µM in assay [2] (run 6), 61.3 µM in assay [3] (PAF-induced) and > 66 µM in assay [3] (TNFa-induced).

As a reminder, the IC50 is the concentration needed to halve the response being measured. High values mean a need for much substance, low ones inhibition by little substance.
